From patent US20220289708A1, “SUBSTITUTED N-PHENYL URACILS, SALTS THEREOF AND THEIR USE AS HERBICIDAL AGENTS” (Bayer Aktiengesellschaft, priority 2019, published 2022)

Experiments:
Format in all cases: in vivo
Abutilon theophrasti [1] = experiment: Post-emergence herbicidal action; conditions: application rate 5 g/ha, rated visually after about 3 weeks vs untreated controls
Method in brief: (§1)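 Post-em spray, one-leaf stage (2–3 wk post-sowing), sandy loam, greenhouse. WP/EC in aqueous suspension/emulsion + 0.5% additive, 600 l/ha water, ≤20 g/ha. Visual % rating ~3 wk vs untreated: 100% dead, 0% like control.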

Alopecurus myosuroides [2] = experiment: Post-emergence herbicidal action; conditions: application rate 5 g/ha, rated visually after about 3 weeks vs untreated controls
Method in brief: as §1

Amaranthus retroflexus [3] = experiment: Post-emergence herbicidal action; conditions: application rate 5 g/ha, rated visually after about 3 weeks vs untreated controls
Method in brief: as §1

Avena fatua [4] = experiment: Post-emergence herbicidal action; conditions: application rate 20 g/ha, rated visually after about 3 weeks vs untreated controls
Method in brief: as §1

Digitaria sanguinalis [5] = experiment: Post-emergence herbicidal action; conditions: rated visually after about 3 weeks vs untreated controls
Method in brief: as §1

Echinochloa crus-galli [6] = experiment: Post-emergence herbicidal action; conditions: application rate 5 g/ha, rated visually after about 3 weeks vs untreated controls
Method in brief: as §1

Hordeum murinum = experiment: Post-emergence herbicidal action; conditions: application rate 20 g/ha
Method in brief: as §1

Lolium rigidum [7] = experiment: Post-emergence herbicidal action; conditions: application rate 20 g/ha, rated visually after about 3 weeks vs untreated controls
Method in brief: as §1

Matricaria inodora [8] = experiment: Post-emergence herbicidal action; conditions: rated visually after about 3 weeks vs untreated controls
Method in brief: as §1

Pharbitis purpurea [9] = experiment: Post-emergence herbicidal action; conditions: application rate 5 g/ha, rated visually after about 3 weeks vs untreated controls
Method in brief: as §1

Polygonum convolvulus [10] = experiment: Post-emergence herbicidal action; conditions: application rate 5 g/ha
Method in brief: as §1

Setaria viridis [11] = experiment: Post-emergence herbicidal action; conditions: application rate 5 g/ha, rated visually after about 3 weeks vs untreated controls
Method in brief: as §1

Stellaria media = experiment: Post-emergence herbicidal action; conditions: application rate 5 g/ha, rated visually after about 3 weeks vs untreated controls
Method in brief: as §1

Veronica persica [12] = experiment: Post-emergence herbicidal action; conditions: application rate 5 g/ha
Method in brief: as §1

Viola tricolor [13] = experiment: Post-emergence herbicidal action; conditions: application rate 5 g/ha
Method in brief: as §1

Oryza sativa = experiment: Post-emergence crop plant compatibility; conditions: application rate 5 g/ha
Method in brief: (§2)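 Greenhouse crop plants in sandy loam sprayed at one-leaf stage (2-3 weeks after sowing) with WP or EC formulations plus 0.5% additive, 600 l/ha water, at 5 g/ha or 20 g/ha. Damage scored visually after about 3 weeks as % versus untreated controls (100% = plants dead).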

Zea mays [14] = experiment: Post-emergence crop plant compatibility; conditions: application rate 5 g/ha
Method in brief: as §2

Triticum aestivum [15] = experiment: Post-emergence crop plant compatibility; conditions: application rate 5 g/ha
Method in brief: as §2

Abutilon theophrasti [16] = experiment: Pre-emergence herbicidal action; conditions: application rate 20 g/ha
Text: (§3) B. Pre-Emergence Herbicidal Action and Crop Plant Compatibility Seeds of monocotyledonous and dicotyledonous weed plants and crop plants were placed in plastic or organic planting pots and covered with soil. The compounds of the invention, formulated in the form of wettable powders (WP) or as emulsion concentrates (EC), were then applied to the surface of the covering soil as aqueous suspension or emulsion with addition of 0.5% additive at a water application rate equivalent to 600 l/ha (converted). After the treatment, the pots were placed in a greenhouse and kept under good growth conditions for the test plants. After about 3 weeks, the effect of the preparations was scored visually in comparison with untreated controls as percentages. For example, 100% activity=the plants have died, 0% activity=like control plants. Tables B1 to B13 below show the effects of selected compounds of the general formula (I) according to Tables I.1 to I.36 on various harmful plants and at an application rate corresponding to 80 g/ha or less, which were obtained by the experimental procedure mentioned above.

Alopecurus myosuroides [17] = experiment: Pre-emergence herbicidal action
Text: as §3

Amaranthus retroflexus [18] = experiment: Pre-emergence herbicidal action; conditions: application rate 20 g/ha
Text: as §3

Avena fatua [19] = experiment: Pre-emergence herbicidal action; conditions: application rate 80 g/ha
Text: as §3

Digitaria sanguinalis [20] = experiment: Pre-emergence herbicidal action; conditions: application rate 20 g/ha
Text: as §3

Echinochloa crus-galli [21] = experiment: Pre-emergence herbicidal action
Text: as §3

Lolium rigidum [22] = experiment: Pre-emergence herbicidal action; conditions: application rate 80 g/ha
Text: as §3

Matricaria inodora [23] = experiment: Pre-emergence herbicidal action; conditions: application rate 20 g/ha
Text: as §3

Pharbitis purpurea [24] = experiment: Pre-emergence herbicidal action
Text: as §3

Polygonum convolvulus [25] = experiment: Pre-emergence herbicidal action; conditions: application rate 20 g/ha
Text: as §3

Setaria viridis [26] = experiment: Pre-emergence herbicidal action; conditions: application rate 20 g/ha
Text: as §3

Veronica persica [27] = experiment: Pre-emergence herbicidal action; conditions: application rate 20 g/ha
Text: as §3

Viola tricolor [28] = experiment: Pre-emergence herbicidal action; conditions: application rate 20 g/ha
Text: as §3

Triticum aestivum [29] = experiment: Pre-emergence crop plant compatibility; conditions: application rate 20 g/ha
Text: (§4) B. Pre-Emergence Herbicidal Action and Crop Plant Compatibility
as §3, with “Seeds” for “B. Pre-Emergence Herbicidal Action and Crop Plant Compatibility Seeds”, “plants.” for “plants. Tables B1 to B13 below show the effects of selected compounds of the general formula (I) according to Tables I.1 to I.36 on various harmful plants and at an application rate corresponding to 80 g/ha or less, which were obtained by the experimental procedure mentioned above.”
(§5) Tables B14 to B16 below show the crop plant compatibilities of selected compounds of the general formula (I) according to Tables I.1 to I.36 at an application rate corresponding to 20 g/ha, which were obtained in experiments according to the experimental procedure mentioned above. Here, the observed effects on selected crop plants are stated in comparison to the untreated controls (values in %).

Zea mays [30] = experiment: Pre-emergence crop plant compatibility; conditions: application rate 20 g/ha
Text: as §4
as §3, with “Seeds” for “B. Pre-Emergence Herbicidal Action and Crop Plant Compatibility Seeds”, “plants.” for “plants. Tables B1 to B13 below show the effects of selected compounds of the general formula (I) according to Tables I.1 to I.36 on various harmful plants and at an application rate corresponding to 80 g/ha or less, which were obtained by the experimental procedure mentioned above.”
as §5

| SMILES | Abutilon theophrasti (efficacy in %) (Abutilon theophrasti [1]) | Amaranthus retroflexus (efficacy in %) (Amaranthus retroflexus [3]) | Avena fatua (efficacy in %) (Avena fatua [4]) | Digitaria sanguinalis (efficacy in %) (Digitaria sanguinalis [5]; application rate 5 g/ha) | Echinochloa crus-galli (efficacy in %) (Echinochloa crus-galli [6]) | Pharbitis purpurea (efficacy in %) (Pharbitis purpurea [9]) | Veronica persica (efficacy in %) (Veronica persica [12]) | Oryza sativa (efficacy in %) (Oryza sativa) | Abutilon theophrasti (efficacy in %) (Abutilon theophrasti [16]) | Amaranthus retroflexus (efficacy in %) (Amaranthus retroflexus [18]) | Avena fatua (efficacy in %) (Avena fatua [19]) | Digitaria sanguinalis (efficacy in %) (Digitaria sanguinalis [20]) | Lolium rigidum (efficacy in %) (Lolium rigidum [22]) | Matricaria inodora (efficacy in %) (Matricaria inodora [23]) | Polygonum convolvulus (efficacy in %) (Polygonum convolvulus [25]) | Setaria viridis (efficacy in %) (Setaria viridis [26]) | Veronica persica (efficacy in %) (Veronica persica [27]) | Viola tricolor (efficacy in %) (Viola tricolor [28]) | Triticum aestivum (efficacy in %) (Triticum aestivum [29]) | Pharbitis purpurea (efficacy in %) (Pharbitis purpurea [24]; application rate 20 g/ha) | other results |
| --- | --- | --- | --- | --- | --- | --- | --- | --- | --- | --- | --- | --- | --- | --- | --- | --- | --- | --- | --- | --- | --- |
| Cn1c(C(F)(F)F)cc(=O)n(-c2cc(Sc3cccnc3SCC(=O)OCC3CCCO3)c(Cl)cc2F)c1=O (stereo not drawn) [I.10-71] | 100% | 100% | 80% | 90% | 100% | 100% | 90% | 20% | – | – | – | – | – | – | – | – | – | – | – | – | Alopecurus myosuroides (efficacy in %) (Alopecurus myosuroides [2]): 80%; Hordeum murinum (efficacy in %) (Hordeum murinum): 80%; Lolium rigidum (efficacy in %) (Lolium rigidum [7]): 80%; Matricaria inodora (efficacy in %) (Matricaria inodora [8]; application rate 5 g/ha): 80%; Polygonum convolvulus (efficacy in %) (Polygonum convolvulus [10]): 100%; Setaria viridis (efficacy in %) (Setaria viridis [11]): 100%; Stellaria media (efficacy in %) (Stellaria media): 100%; Viola tricolor (efficacy in %) (Viola tricolor [13]): 100%; Zea mays (efficacy in %) (Zea mays [14]): 20% |
| COCCOCCOCCOCCOC(=O)COc1ncccc1Oc1cc(-n2c(=O)cc(C(F)(F)F)n(C)c2=O)c(F)cc1Cl [I.15-154] | 100% | 100% | – | – | – | 100% | 100% | 0% | 100% | 100% | 100% | 100% | 100% | 100% | 100% | 100% | 100% | 100% | 10% | – | Digitaria sanguinalis (efficacy in %) (Digitaria sanguinalis [5]; application rate 20 g/ha): 100%; Triticum aestivum (efficacy in %) (Triticum aestivum [15]): 0%; Alopecurus myosuroides (efficacy in %) (Alopecurus myosuroides [17]; application rate 80 g/ha): 100%; Echinochloa crus-galli (efficacy in %) (Echinochloa crus-galli [21]; application rate 80 g/ha): 100%; Pharbitis purpurea (efficacy in %) (Pharbitis purpurea [24]; application rate 80 g/ha): 100%; Zea mays (efficacy in %) (Zea mays [30]): 0% |
| Cn1c(C(F)(F)F)cc(=O)n(-c2cc(Oc3cccnc3OCC(=O)OCCS(C)(=O)=O)c(Cl)cc2F)c1=O [I.15-166] | 100% | 100% | – | – | – | – | 100% | – | 100% | 100% | 100% | 100% | 100% | 100% | 100% | 100% | 100% | 100% | 20% | 100% | Triticum aestivum (efficacy in %) (Triticum aestivum [15]): 0%; Alopecurus myosuroides (efficacy in %) (Alopecurus myosuroides [17]; application rate 20 g/ha): 90%; Echinochloa crus-galli (efficacy in %) (Echinochloa crus-galli [21]; application rate 20 g/ha): 80% |
| Cn1c(C(F)(F)F)cc(=O)n(-c2cc(Oc3cccnc3OCC(=O)OCC#N)c(Cl)cc2F)c1=O [I.15-176] | 100% | 100% | 90% | 100% | 100% | 100% | 90% | 20% | – | – | – | – | – | – | – | – | – | – | – | – | Alopecurus myosuroides (efficacy in %) (Alopecurus myosuroides [2]): 80%; Hordeum murinum (efficacy in %) (Hordeum murinum): 100%; Matricaria inodora (efficacy in %) (Matricaria inodora [8]; application rate 20 g/ha): 100%; Polygonum convolvulus (efficacy in %) (Polygonum convolvulus [10]): 100%; Setaria viridis (efficacy in %) (Setaria viridis [11]): 100%; Stellaria media (efficacy in %) (Stellaria media): 100%; Viola tricolor (efficacy in %) (Viola tricolor [13]): 100%; Triticum aestivum (efficacy in %) (Triticum aestivum [15]): 20%; Zea mays (efficacy in %) (Zea mays [14]): 20% |
| Cn1c(C(F)(F)F)cc(=O)n(-c2cc(Oc3cccnc3OCC(=O)OC[Si](C)(C)C)c(Cl)cc2F)c1=O [I.15-201] | 100% | 100% | – | 100% | 100% | 100% | 100% | 0% | 100% | 100% | 100% | 100% | 100% | 100% | 100% | 100% | 100% | 100% | – | 100% | Zea mays (efficacy in %) (Zea mays [14]): 20%; Alopecurus myosuroides (efficacy in %) (Alopecurus myosuroides [17]; application rate 80 g/ha): 100%; Echinochloa crus-galli (efficacy in %) (Echinochloa crus-galli [21]; application rate 80 g/ha): 100%; Zea mays (efficacy in %) (Zea mays [30]): 0% |
| CC(C#N)COC(=O)COc1ncccc1Oc1cc(-n2c(=O)cc(C(F)(F)F)n(C)c2=O)c(F)cc1Cl (stereo not drawn) [I.15-405] | – | – | – | 100% | 100% | 100% | 100% | – | 100% | 100% | 100% | 100% | 100% | 100% | 90% | 100% | 100% | 100% | 20% | 100% | Matricaria inodora (efficacy in %) (Matricaria inodora [8]; application rate 5 g/ha): 80%; Alopecurus myosuroides (efficacy in %) (Alopecurus myosuroides [17]; application rate 80 g/ha): 100%; Echinochloa crus-galli (efficacy in %) (Echinochloa crus-galli [21]; application rate 20 g/ha): 80%; Zea mays (efficacy in %) (Zea mays [30]): 0% |
| Cn1c(C(F)(F)F)cc(=O)n(-c2cc(Oc3cccnc3OCC(=O)OCC3OCCO3)c(Cl)cc2F)c1=O [I.15-424] | 100% | 100% | 100% | 100% | 100% | 100% | 100% | – | 100% | 100% | 100% | 100% | 100% | 100% | 100% | 100% | 100% | 100% | 10% | 100% | Matricaria inodora (efficacy in %) (Matricaria inodora [8]; application rate 5 g/ha): 100%; Alopecurus myosuroides (efficacy in %) (Alopecurus myosuroides [17]; application rate 20 g/ha): 80%; Echinochloa crus-galli (efficacy in %) (Echinochloa crus-galli [21]; application rate 20 g/ha): 90% |
